Source: patent US10653737B1, “Synergistic nutritional compositions for pain management” (Celagenex Research (India) Pvt. Ltd., priority 2019, dated 2020)

What was measured:
eNOS gene = eNOS gene expression by semi-quantitative RT-PCR in H9C2 cells; assay type: cell-based, rat; details: for Regulation in Terms of Folds, eNOS (normalized to β-Actin): control = 1.00
Protocol: The test substances were evaluated for its gene expression activity in H9C2 (rat cardiomyocytes), the concentration of test substances (G2, G3 and G4,) is 500 μg/ml were taken for gene expression studies. […] [Hunter C. Champion, et al., PNAS, 2005; 102:5:1661-1666.]
eNOS were estimated for the test substance by gene expression method, where the level of expression of eNOS expression on […] Cardiomyocytes (H9C2) was determined with respect to untreated H9C2 cells.
The H9C2 cells treated with test samples were subjected to cell lysis by treating with Tri-extract reagent. Chloroform was added, to isolate the total RNA from the sample and subjected for centrifugation. Out of the three distinct layers observed, upper layer was collected in fresh tube and equal volume of isopropanol was added and incubated at […] for 10 mins. After the incubation followed by centrifugation, appropriate volume of ethanol was added to resuspend the pellet. After incubation and centrifugation, the pellet was air dried and appropriate volume of TAE buffer was added. The isolated total RNA was further used for cDNA synthesis. cDNA was synthesized by priming with oligo-dT primers followed by reverse transcriptase enzyme treatment according to manufacturer's protocol (Thermoscientific). The cDNA thus synthesized was taken up for PCR for the amplification of eNOS and GAPDH (internal control).
The mRNA expression levels of eNOS were determined using semi-quantitative reverse transcriptase-polymerase chain reaction (RT-PCR). 50p of the reaction mixture was subjected to PCR for amplification of eNOS. cDNAs using specifically designed primers procured from Eurofins, India and as an internal control GAPDH/3-Actin (House-keeping genes) was co-amplified with each reaction.
eNOS: 95° C. for 5 min followed by 35 cycles of denaturation at 95° C. for 30 seconds, annealing Temp for 30 seconds and extension at 72° C. for 45 seconds. This was followed by final extension at 72° C. for 10 min.

[1] = test system: Swiss albino mice (tail immersion model); assay: Tail immersion model, analgesic potential in experimental mice; assay type: in vivo; details: for Tail immersion latency reaction time: water 55° C., cut off 15 second, Mean ± SEM, n=6; for Percentage maximum possible effect: [(Post drug latency-Pre drug latency)/(15-Pre drug latency)]×100
Protocol: Animal Study—Evaluation of analgesic potential of the test substances against tail immersion model in experimental mice.
Male Swiss albino mice weighing between 30-35 g were used. Mice were placed into individual cylindrical mice holders leaving the tail hanging out freely. The animals were allowed to get acclimatized to mice holders for 30 min before testing. The lower 5 cm portion of the tail was marked. This part of the tail was immersed in a cup of freshly filled water at 55° C. The reaction time was recorded using a stop-watch. After each determination the tail was carefully dried. The reaction time was determined before and periodically 0 min, 30 min, 60 min, 90 min, 120 min, 180 min and 240 min after the oral administration of test substance. The cut off time of immersion was 15 second. The percentage maximum possible effect (% MPE) was calculated using the following formula: [(Post drug latency-Pre drug latency)/(15-Pre drug latency)]×100.
The values were expressed in Mean±SEM. The significance of in vivo data was analyzed by One way anova followed by Dunnet test. P<0.05 was considered as statistically significant.

For `CC(C)C[C@H](CN)CC(=O)O` [Pregabalin (LYRICA ®) 75 mg, Pregabalin, reference compound], the “Regulation in Terms of Folds, eNOS (normalized to β-Actin)” value (eNOS gene; 125 μg/ml) was 1.58 fold, the “eNOS gene expression up-regulated over control” value (eNOS gene; standard product (125 μg/ml), increase over control) was 0.58 fold and the “Percentage maximum possible effect compared with Pain control group (in words)” value ([1]; mouse, in vivo) was “significant increased”. For the same molecule, the “Tail immersion latency reaction time compared with Pain control group (in words)” value ([1]; mouse, in vivo) was “significant increased”.

For `CCCCCCCCCCCCCCCC(=O)NCCO` [Composition P3A, palmitoylethanolamide], the “eNOS expression over expressed as compared to the control” value (eNOS gene; at tested doses (500 μg/ml), increase over control) was 0.25 folds, the “Regulation in Terms of Folds, eNOS (normalized to β-Actin)” value (eNOS gene; test substance 500 μg/ml) was 1.25 fold and the “Tail immersion latency reaction time” value ([1]; 0 Min, oral) was 2.50 s. The “Tail immersion latency reaction time” value ([1]; 30 Min after oral administration) was 5.17 s, the “Percentage maximum possible effect” value ([1]; 30 Min) was 21.33% and the “Tail immersion latency reaction time” value ([1]; 60 Min after oral administration) was 5.83 s. For the same molecule, the “Percentage maximum possible effect” value ([1]; 60 Min) was 26.67%, the “Tail immersion latency reaction time” value ([1]; 90 Min after oral administration) was 6.50 s and the “Percentage maximum possible effect” value ([1]; 90 Min) was 32.00%. The “Tail immersion latency reaction time” value ([1]; 120 Min after oral administration) was 7.50 s, the “Percentage maximum possible effect” value ([1]; 120 Min) was 40.00% and the “Tail immersion latency reaction time” value ([1]; 180 Min after oral administration) was 8.33 s. The “Percentage maximum possible effect” value ([1]; 180 Min) was 46.67%, the “Tail immersion latency reaction time” value ([1]; 240 Min after oral administration) was 7.50 s and the “Percentage maximum possible effect” value ([1]; 240 Min) was 40.00%. The “Percentage maximum possible effect compared with Pain control group (in words)” value ([1]; different intervals of time) was “significant increased” and the “Tail immersion latency reaction time compared with Pain control group (in words)” value ([1]; different time intervals, One way anova, Dunnet test, P<0.05) was “significant increased”.
